According to patent US10821164B2, “Peptides for inducing Chagas disease responses” (SAINT LOUIS UNIVERSITY, priority 2015, dated 2020):

Experiments:
T. cruzi = details: children aged six to 12 years with chronic disease; cited from earlier work
CD8^+ T cells = test: IFN-γ ELISPOT after vaccination of HLA-A2 transgenic mice with peptide-pulsed mature dendritic cells; type: cell-based, HLA-A2 HHDII transgenic mice; details: splenic CD8+ T cells four weeks after second peptide-pool pulsed mDC vaccination; stimulated overnight with spleen cells pulsed with individual peptide 5 μg/ml; FIG. 2A
Source text: FIGS. 2A-C—Immunogenicity of predicted HLA-A2 restricted T. cruzi epitopes. HLA-A2 transgenic mice were vaccinated twice, two weeks apart with mature dendritic cells pulsed with functional TS (F-TS; FIG. 2A), Non-functional TS (NF-TS; FIG. 2B), or whole genome derived Non-TS peptide pools (FIG. 2C). One month later, CD8^+ T cells were isolated from control DC or peptide-pool pulsed DC vaccinated mice and stimulated overnight with APCs pulsed with individual F-TS, NF-TS, or Non-TS peptides in IFN-γ ELISPOT assays. Shown are mean±SE from representative experiments expressed as IFN-γ spot forming cells (SFC) per million CD8^+ T cells above DMSO control. Asterisks denote immunogenic peptides defined as responses greater than the mean+2 SE of all control CD8^+ T cell responses.
All animal studies were conducted in AAALAC accredited facilities and were approved by the Saint Louis University Institutional Animal Care and Use Committee. HLA-A2 HHDII transgenic mice were provided by Ted Hansen (Washington University) with permission from Marion Berard at the Institut Pasteur and were bred and housed under pathogen-free conditions throughout the inventors' studies (Pascolo et al., 1997). […]

O=C(Cn1ccnc1[N+](=O)[O-])NCc1ccccc1 [benznidazole]
cure rate (T. cruzi): about 60%

EVYSLVFARL [F-TS-2]
IFN-γ spot forming cells (SFC) per million CD8^+ T cells above DMSO control (CD8^+ T cells): 5,000 IFN-γ SFC/million CD8^+ T cells
